# Legend:
# [1] = target: T1, cloned dopamine D3 receptors (Homo sapiens, UniProt P35462); experiment: Radioligand Kd at cloned dopamine D3 receptors; assay type: binding
# T1 construct: expressed in transfected cells
# [2] = system: depressive symptoms in acute exacerbations of schizophrenia; conditions: amisulpride 400-800 mg/day, haloperidol 15-20 mg/day, risperidone 8 mg/day; Peuskens et al. 2002; cited from earlier work
# [3] = system: duration of immobility in the forced swimming test; conditions: mice, Nakazawa et al. 2003, cited from earlier work
# [4] = system: dopamine behavioral supersensitivity; experiment: Dopamine behavioral supersensitivity in animals; assay type: in vivo; conditions: P. Seeman, Unpublished Results
# [5] = system: depression (Major Depressive Disorder); experiment: Clinical observation of treatment-resistant depression patients, Hamilton Scale for Depression; assay type: in vivo, human
# From the text: All subjects were patients of a clinic for treatment-resistant depression at a tertiary hospital. Treatment-resistance was defined as a treatment failure on at least two other antidepressants prior to their referral to the clinic. Patients were deemed to be depressed by the referring psychiatrist as well as the treating psychiatrist according to DSM IV Criteria for Major Depressive Disorder.
# The higher the value, the more severe the depression.
# T1 sequence (P35462 whole entry): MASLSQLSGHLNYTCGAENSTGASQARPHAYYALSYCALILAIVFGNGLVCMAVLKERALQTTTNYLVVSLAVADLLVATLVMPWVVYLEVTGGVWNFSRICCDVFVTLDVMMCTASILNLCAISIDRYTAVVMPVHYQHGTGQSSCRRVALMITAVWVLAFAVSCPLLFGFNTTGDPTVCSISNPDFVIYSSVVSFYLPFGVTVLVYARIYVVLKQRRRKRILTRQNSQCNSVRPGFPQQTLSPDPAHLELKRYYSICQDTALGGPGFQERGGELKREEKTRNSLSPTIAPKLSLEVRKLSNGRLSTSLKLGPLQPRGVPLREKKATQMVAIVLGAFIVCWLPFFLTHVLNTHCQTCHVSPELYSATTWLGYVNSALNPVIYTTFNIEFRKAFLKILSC
smiles,measurement,setting,value
CCN1CCC[C@H]1CNC(=O)c1c(O)c(Cl)cc(Cl)c1OC (racemic) [[^3H]raclopride],Kd,[1],1.6 nM
CCN1CCCC1CNC(=O)c1cc(S(=O)(=O)CC)c(N)cc1OC (stereo not shown) [amisulpride],Brief Psychiatric Rating Scale (BPRS) anxiety/depression subscore,[2],5.6±6.1
O=c1cc(-c2ccc(O)cc2)oc2cc(O)cc(O)c12 [apigenin],duration of immobility in the forced swimming test,[3],significantly decreased
CNCCC(Oc1ccc(C(F)(F)F)cc1)c1ccccc1 (stereo not shown) [fluoxetine],dopamine behavioral supersensitivity in animals,[4],cause dopamine behavioral supersensitivity
O=C(CCCN1CCC(O)(c2ccc(Cl)cc2)CC1)c1ccc(F)cc1 [haloperidol],Brief Psychiatric Rating Scale (BPRS) anxiety/depression subscore,[2],4.4±5.5
same,effect on apigenin-induced decrease in immobility in the forced swimming test,[3]; haloperidol 0.2 mg/kg,blocked
same,Rating after end of haloperidol (Hamilton depression scale),"[5]; Subject A, 5th week after starting medication, rating before 7-day regimen 14",9 (5th week)
same,Rating after end of haloperidol (Hamilton depression scale),"[5]; Subject B, 5th week after starting medication, rating before 7-day regimen 18",15 (5th week)
same,Rating after end of haloperidol (Hamilton depression scale),"[5]; Subject C, 5th week after starting medication, rating before 7-day regimen 30",12 (5th week)
same,Rating after end of haloperidol (Hamilton depression scale),"[5]; Subject D, 5th week after starting medication, rating before 7-day regimen 40",32 (5th week)
same,Rating after end of haloperidol (Hamilton depression scale),"[5]; Subject E, 4th week after starting medication, rating before 7-day regimen 23",7 (4th week)
same,Rating after end of haloperidol (Hamilton depression scale),"[5]; Subject F, 5th week after starting medication, rating before 7-day regimen 20",4 (5th week)
same,Rating after end of haloperidol (Hamilton depression scale),"[5]; Subject G, 5th week after starting medication, rating before 7-day regimen 24",13 (5th week)
same,severity of the depression after the 7-day treatment regimen,"[5]; all patients, oral 0.2-0.3 mg/day graded for 7 days",decreased
CN(C)CCCN1c2ccccc2CCc2ccccc21 [imipramine],dopamine behavioral supersensitivity in animals,[4],cause dopamine behavioral supersensitivity
Cc1nc2n(c(=O)c1CCN1CCC(c3noc4cc(F)ccc34)CC1)CCCC2 [risperidone],Brief Psychiatric Rating Scale (BPRS) anxiety/depression subscore,[2],3.7±4.7

# Source: patent publication US8791138B2, “Compositions and methods for alleviating depression or improving cognition” (Clera Inc., priority 2008, dated 2014)
